# In ChEMBL document CHEMBL4837181 (Eur J Med Chem, 2020):
# Assays:
# [1] = AUC (0 to 24 hrs) in male cynomolgus monkey at 675 mg/kg, po measured on day 1; assay type: ADME, organism-based, Macaca fascicularis; set-up: time < 24 hr, route oral, dose 675 mg/kg; conditions: in vivo
# [2] = Change in Cmax in cynomolgus monkey at 275 umol/kg, po measured after 0.083 to 48 hrs by LC-MS/MS analysis; assay type: ADME, organism-based, Macaca fascicularis; conditions: in vivo, at 275 µmol/kg, time 0.083-48 hrs
# [3] = AUC (0 to 24 hrs) in female cynomolgus monkey at 150 mg/kg, po BID measured on day 8; assay type: ADME, organism-based, Macaca fascicularis; set-up: time < 24 hr, route oral, dose 150 mg/kg; conditions: in vivo
# [4] = AUC (0 to 24 hrs) in male cynomolgus monkey at 150 mg/kg, po BID measured on day 8; assay type: ADME, organism-based, Macaca fascicularis; set-up: time < 24 hr, route oral, dose 150 mg/kg; conditions: in vivo
# [5] = Drug accumulation in rat at 100 to 900 mg/kg, po BID; assay type: ADME, organism-based; conditions: in vivo, dose 100-900 mg/kg
# [6] = Cmax in male cynomolgus monkey at 75 mg/kg, po BID measured on day 8; assay type: ADME, organism-based, Macaca fascicularis; set-up: route oral, dose 75 mg/kg; conditions: in vivo
# [7] = AUC (0 to 12 hrs) in po BID dosed cynomolgus monkey administered for 28 days; assay type: ADME, organism-based, Macaca fascicularis; set-up: route oral, time 28 day; conditions: in vivo
# [8] = Half life in mouse at 1147 micromol/kg administered as single dose; assay type: ADME; conditions: in vivo, dose 1147 µmol/kg
# [9] = Half life in mouse at 573 micromol/kg administered as single dose; assay type: ADME; conditions: in vivo, dose 573 µmol/kg
# [10] = Tmax in female cynomolgus monkey at 75 mg/kg, po measured on day 8; assay type: ADME, organism-based, Macaca fascicularis; conditions: in vivo
# [11] = Cmax in male cynomolgus monkey at 150 mg/kg, po BID measured on day 8; assay type: ADME, organism-based, Macaca fascicularis; set-up: route oral, dose 150 mg/kg; conditions: in vivo
# [12] = Change in normalised AUCinfinity in rat at 10 mg/kg, po measured upto 72 hrs by LC-MS/MS analysis; assay type: ADME, organism-based; conditions: in vivo
# [13] = Half life in male cynomolgus monkey at 150 mg/kg, po BID measured on day 8; assay type: ADME, organism-based, Macaca fascicularis; conditions: in vivo
# [14] = Tmax in male cynomolgus monkey at 150 mg/kg, po BID measured on day 8; assay type: ADME, organism-based, Macaca fascicularis; conditions: in vivo
# [15] = Half life in mouse at 143 micromol/kg administered as single dose; assay type: ADME; conditions: in vivo, dose 143 µmol/kg
# [16] = Cmax in female cynomolgus monkey at 375 mg/kg, po BID measured on day 8; assay type: ADME, organism-based, Macaca fascicularis; set-up: route oral, dose 375 mg/kg; conditions: in vivo
# [17] = Half life in female cynomolgus monkey at 150 mg/kg, po measured on day 8; assay type: ADME, organism-based, Macaca fascicularis; conditions: in vivo
# [18] = Cmax in male cynomolgus monkey at 675 mg/kg, po measured on day 1; assay type: ADME, organism-based, Macaca fascicularis; set-up: route oral, dose 675 mg/kg; conditions: in vivo
# [19] = Change in Cmax in cynomolgus monkey at 825 umol/kg, po measured after 0.083 to 48 hrs by LC-MS/MS analysis; assay type: ADME, organism-based, Macaca fascicularis; conditions: in vivo, at 825 µmol/kg, time 0.083-48 hrs
# [20] = Change in Cmax in rat at 37 umol/kg, po measured upto 72 hrs by LC-MS/MS analysis; assay type: ADME, organism-based; conditions: in vivo, at 37 µmol/kg
# [21] = Change in Cmax in cynomolgus monkey at 92 umol/kg, po measured after 0.083 to 48 hrs by LC-MS/MS analysis; assay type: ADME, organism-based, Macaca fascicularis; conditions: in vivo, at 92 µmol/kg, time 0.083-48 hrs
# [22] = Change in normalised Cmax in rat at 10 mg/kg, po measured upto 72 hrs by LC-MS/MS analysis; assay type: ADME, organism-based; conditions: in vivo
# [23] = Change in AUC(infinity) in cynomolgus monkey at 275 umol/kg, po measured after 0.083 to 48 hrs by LC-MS/MS analysis; assay type: ADME, organism-based, Macaca fascicularis; conditions: in vivo, at 275 µmol/kg, time 0.083-48 hrs
# [24] = AUC (0 to 24 hrs) in female cynomolgus monkey at 75 mg/kg, po measured on day 1; assay type: ADME, organism-based, Macaca fascicularis; set-up: time < 24 hr, route oral, dose 75 mg/kg; conditions: in vivo
# [25] = Tmax in female cynomolgus monkey at 675 mg/kg, po measured on day 1; assay type: ADME, organism-based, Macaca fascicularis; conditions: in vivo
# [26] = Half life in female cynomolgus monkey at 675 mg/kg, po measured on day 1; assay type: ADME, organism-based, Macaca fascicularis; conditions: in vivo
# [27] = Tmax in male cynomolgus monkey at 675 mg/kg, po measured on day 1; assay type: ADME, organism-based, Macaca fascicularis; conditions: in vivo
# [28] = Tmax in mouse at 287 micromol/kg administered as single dose; assay type: ADME; conditions: in vivo, dose 287 µmol/kg
# [29] = Dose normalized Cmax in rat at 10 mg/kg, po measured upto 72 hrs by LC-MS/MS analysis; assay type: ADME, organism-based; conditions: in vivo
# [30] = AUC (0 to 24 hrs) in male cynomolgus monkey at 225 mg/kg, po measured on day 1; assay type: ADME, organism-based, Macaca fascicularis; set-up: time < 24 hr, route oral, dose 225 mg/kg; conditions: male, in vivo
# [31] = Change in AUC (infinity) in rat at 37 umol/kg, po measured upto 72 hrs by LC-MS/MS analysis; assay type: ADME, organism-based; conditions: in vivo, at 37 µmol/kg
# [32] = AUC (0 to 24 hrs) in female cynomolgus monkey at 675 mg/kg, po measured on day 1; assay type: ADME, organism-based, Macaca fascicularis; set-up: time < 24 hr, route oral, dose 675 mg/kg; conditions: in vivo
# [33] = Change in AUC(infinity) in cynomolgus monkey at 825 umol/kg, po measured after 0.083 to 48 hrs by LC-MS/MS analysis; assay type: ADME, organism-based, Macaca fascicularis; conditions: in vivo, at 825 µmol/kg, time 0.083-48 hrs
# [34] = Cmax in female cynomolgus monkey at 75 mg/kg, po BID measured on day 8; assay type: ADME, organism-based, Macaca fascicularis; set-up: route oral, dose 75 mg/kg; conditions: in vivo
# [35] = Cmax in female cynomolgus monkey at 150 mg/kg, po measured on day 8; assay type: ADME, organism-based, Macaca fascicularis; set-up: route oral, dose 150 mg/kg; conditions: in vivo
# [36] = Cmax in male cynomolgus monkey at 15 mg/kg, iv measured on day 1; assay type: ADME, organism-based, Macaca fascicularis; set-up: route intravenous, dose 15 mg/kg; conditions: in vivo
# [37] = Change in Cmax in rat at 185 umol/kg, po measured upto 72 hrs by LC-MS/MS analysis; assay type: ADME, organism-based; conditions: in vivo, at 185 µmol/kg
# [38] = Dose normalized AUC (0 to infinity) in rat at 10 mg/kg, po measured upto 72 hrs by LC-MS/MS analysis; assay type: ADME, organism-based; conditions: in vivo
# [39] = Half life in male cynomolgus monkey at 675 mg/kg, po measured on day 1; assay type: ADME, organism-based, Macaca fascicularis; conditions: in vivo
# [40] = Half life in mouse at 287 micromol/kg administered as single dose; assay type: ADME; conditions: in vivo, dose 287 µmol/kg
# [41] = Tmax in male cynomolgus monkey at 75 mg/kg, po BID measured on day 8; assay type: ADME, organism-based, Macaca fascicularis; conditions: in vivo
# [42] = Tmax in male cynomolgus monkey at 225 mg/kg, po measured on day 1; assay type: ADME, organism-based, Macaca fascicularis; conditions: in vivo
# [43] = Cmax in female cynomolgus monkey at 15 mg/kg, iv measured on day 1; assay type: ADME, organism-based, Macaca fascicularis; set-up: route intravenous, dose 15 mg/kg; conditions: in vivo
# [44] = Change in AUC(infinity) in cynomolgus monkey at 92 umol/kg, po measured after 0.083 to 48 hrs by LC-MS/MS analysis; assay type: ADME, organism-based, Macaca fascicularis; conditions: in vivo, at 92 µmol/kg, time 0.083-48 hrs
# [45] = Change in Cmax in rat at 500 umol/kg, po measured upto 72 hrs by LC-MS/MS analysis; assay type: ADME, organism-based; conditions: in vivo, at 500 µmol/kg
# [46] = Change in AUC(infinity) in rat at 500 umol/kg, po measured upto 72 hrs by LC-MS/MS analysis; assay type: ADME, organism-based; conditions: in vivo, at 500 µmol/kg
# [47] = Cmax in male cynomolgus monkey at 225 mg/kg, po measured on day 1; assay type: ADME, organism-based, Macaca fascicularis; set-up: route oral, dose 225 mg/kg; conditions: in vivo
# [48] = Drug accumulation in monkey at 75 to 375 mg/kg, po BID; assay type: ADME, organism-based, Macaca mulatta; conditions: rhesus monkey, in vivo, dose 75-375 mg/kg
# [49] = Tmax in female cynomolgus monkey at 375 mg/kg, po BID measured on day 8; assay type: ADME, organism-based, Macaca fascicularis; conditions: in vivo
# [50] = Cmax in female cynomolgus monkey at 675 mg/kg, po measured on day 1; assay type: ADME, organism-based, Macaca fascicularis; set-up: route oral, dose 675 mg/kg; conditions: in vivo
# [51] = Cmax in female cynomolgus monkey at 75 mg/kg, po measured on day 1; assay type: ADME, organism-based, Macaca fascicularis; set-up: route oral, dose 75 mg/kg; conditions: in vivo
smiles,measurement,setting,value
CCOC(=O)[C@@H](Cc1cn(C)c2ccccc12)NC(=O)[C@@H](N)CC(C)C.Cl,AUC,[1],0.966 µM·h
same,Activity,[2],476%
same,AUC at 24 h,[3],0.057 µM·h
same,AUC at 24 h,[4],0.0806 µM·h
same,Drug metabolism,[5],Metabolite_Notdetected
same,Cmax,[6],0.00774 µM
same,AUC at 672 h,[7],320 µM·h
same,half-life,[8],192 min
same,half-life,[9],186 min
same,Tmax,[10],2 h
same,Cmax,[11],0.0171 µM
same,Activity,[12],75%
same,half-life,[13],510 min
same,Tmax,[14],2 h
same,half-life,[15],174 min
same,Cmax,[16],0.403 µM
same,half-life,[17],180 min
same,Cmax,[18],0.148 µM
same,Activity,[19],230%
same,Activity,[20],92%
same,Activity,[21],518%
same,Activity,[22],24%
same,Activity,[23],518%
same,AUC(0-t) at 24 h,[24],0.0287 µM·h
same,Tmax,[25],1 h
same,half-life,[26],582 min
same,Tmax,[27],2 h
same,Tmax,[28],30 min
same,Cmax/dose,[29],16.2 µM
same,AUC(0-t) at 24 h,[30],0.0602 µM·h
same,Activity,[31],70%
same,AUC,[32],0.966 µM·h
same,Activity,[33],416%
same,Cmax,[34],0.00971 µM
same,Cmax,[35],0.0105 µM
same,Cmax,[36],0.135 µM
same,Activity,[37],112%
same,AUC/dose,[38],888 µM·h
same,half-life,[39],582 min
same,half-life,[40],132 min
same,Tmax,[41],1 h
same,Tmax,[42],3 h
same,Cmax,[43],0.135 µM
same,Activity,[44],195%
same,Activity,[45],5%
same,Activity,[46],15%
same,Cmax,[47],0.0126 µM
same,Drug metabolism,[48],Metabolite_Notdetected
same,Tmax,[49],2 h
same,Cmax,[50],0.0759 µM
same,Cmax,[51],0.00846 µM
Cn1cc(C[C@@H](N)C(=O)O)c2ccccc21 [INDOXIMOD],AUC,[1],4470 µM·h
same,Activity,[2],0%
same,AUC at 24 h,[3],403 µM·h
same,AUC at 24 h,[4],509 µM·h
same,Drug metabolism,[5],Metabolite_Notdetected
same,Cmax,[6],47.3 µM
same,AUC at 672 h,[7],320 µM·h
same,half-life,[8],204 min
same,half-life,[9],186 min
same,Tmax,[10],1 h
same,Cmax,[11],93.4 µM
same,Activity,[12],0%
same,half-life,[13],168 min
same,Tmax,[14],2 h
same,half-life,[15],180 min
same,Cmax,[16],203 µM
same,half-life,[17],162 min
same,Cmax,[18],311 µM
same,Activity,[19],0%
same,Activity,[20],0%
same,Activity,[21],0%
same,Activity,[22],0%
same,Activity,[23],0%
same,AUC(0-t) at 24 h,[24],177 µM·h
same,Tmax,[25],2 h
same,half-life,[26],612 min
same,Tmax,[27],4 h
same,Tmax,[28],36 min
same,Cmax/dose,[29],17.3 µM
same,AUC(0-t) at 24 h,[30],525 µM·h
same,Activity,[31],0%
same,AUC,[32],6450 µM·h
same,Activity,[33],0%
same,Cmax,[34],59.3 µM
same,Cmax,[35],79 µM
same,Cmax,[36],39.5 µM
same,Activity,[37],0%
same,AUC/dose,[38],508 µM·h
same,half-life,[39],258 min
same,half-life,[40],168 min
same,Tmax,[41],1 h
same,Tmax,[42],2 h
same,Cmax,[43],43.1 µM
same,Activity,[44],0%
same,Activity,[45],0%
same,Activity,[46],0%
same,Cmax,[47],97.7 µM
same,Drug metabolism,[48],Metabolite_Notdetected
same,Tmax,[49],2.5 h
same,Cmax,[50],387 µM
same,Cmax,[51],55 µM
